The text below walks through data of patent US10060933B2, “Methods for diagnosis and treatment of amyotrophic lateral sclerosis based on an increased level of interaction between TDP-43 polypeptide and NF-KB P65 polypeptide” (UNIVERSITE LAVAL, priority 2011, dated 2018).

Series [1] has as its system endogenous mouse TDP-43. Nature of the series: Western blot of TDP-43 after siRNA transfection of BV-2 cells. The class given is cell-based. The note with it: vs scrambled siRNA. As for the experimental part:
(§1) If correct that TDP-43 acts as a co-activator of p65, then reducing the levels of TDP-43 should attenuate p65 activation. To reduce the expression levels of TDP-43, microglial BV-2 cells were transfected with either TDP-43 siRNA or scrambled siRNA together with 4κB^wt-luc vectors. 72 hrs after transfection some of the cells were either stimulated with LPS (100 ng/ml) or mock stimulated for 12 hrs. […] To examine the effect of reducing TDP-43 levels on NF-κB activation, BV-2 cells were transfected with pCMV-p65 and 4κB^wt-luc vectors. TDP-43 siRNA decreased activation of NF-κB reporter gene in transfected cells. The decrease in NF-κB activation was about 3-fold for 5 ng pCMV-p65 (n=4, p<0.01) and about 2.5-fold for 10 and 20 ng pCMV-p65 (n=4, p<0.05) and 2-fold for 50 ng pCMV-p65 (n=4, p<0.05) as compared to scrambled siRNA transfected cells (FIG. 5B). To examine the physiological significance of TDP-43 inhibition by siRNA, we transfected BV-2 cells with ICAM1-luc vector together with TDP-43 siRNA or scrambled siRNA. 72 hrs after transfection, cells were stimulated with varying concentrations of TNF-α. […] We also tested the effect of TDP-43 siRNA transfected in bone-marrow derived macrophages (BMMs) from normal mice. We compared the level of innate immunity activation when stimulated with LPS.
To selectively prevent TDP-43 expression, we employed the RNA interference technology. […]

Series [2] relates to NF-κB. Nature of the series: 4κB^wt-luc NF-κB reporter gene assay in BV-2 cells. The class given is cell-based, mouse. As for the experimental part: as §1
(§2) BV2 cells were harvested in 120 μl of cell lysis buffer (Promega, Madison, Wis., USA), and an ensuing 1-min centrifugation step (20,000×g) yielded a luciferase-containing supernatant. In both cases aliquots of 20-μl supernatant were tested for luciferase activity (luciferase assay kit, Promega) and for β-galactosidase activity (β-galactosidase assay kit, Promega) to adjust for transfection efficiency.
(§3) To selectively prevent TDP-43 expression, we employed the RNA interference technology. A double-stranded RNA (siRNA) was employed to degrade TDP-43 mRNA and thus to limit the available protein. The siRNA experiments were designed and conducted as described earlier^26. The siRNAs directed against the murine TDP-43 mRNA (NM_145556.4) consisted of sequences with symmetrical 3′-UU overhangs using siRNA Target Finder (Ambion, Tex., USA). […] To account for the non-sequence-specific effects, scrambled siRNA was used. The sequence of scrambled siRNA is as follows: 5′-[…]-3′ (SEQ ID NO:19) and 5′-[…]-3′ (SEQ ID NO:20). TDP-43 siRNAs or the scrambled siRNAs were suspended in diethyl […] water to yield desired concentration. For in vitro transfection, cells were plated in 24-well plates and transfected with 0.6 μmol/L siRNAs with 2 μL Lipofectamine 2000 (Invitrogen). The cells were then kept for 72 h in OptiMEM medium (Gibco).

Series [3] deals with ICAM-1 luciferase activity. The series can be described thus: ICAM1-luc luciferase assay in TNF-α stimulated BV-2 cells. Format: cell-based, mouse. The note with it: vs scrambled siRNA. As to the method: as §1, §2
To selectively prevent TDP-43 expression, we employed the RNA interference technology. A double-stranded RNA (siRNA) was employed to degrade TDP-43 mRNA and thus to limit the available protein. The siRNA experiments were designed and conducted as described earlier^26. […]

Series [4] concerns bone-marrow derived macrophages (BMMs). Nature of the series: Real-time RT-PCR of innate immunity genes in LPS stimulated bone-marrow derived macrophages. Format: cell-based, mouse. As to conditions: vs scrambled siRNA. As to the method: as §1
Real-time RT-PCR was performed with a LightCycler 480 (Roche Diagnostics) sequence detection system using LightCycler SYBR Green I at the Quebec genomics Centre, Quebec. Total RNA was extracted from cell culture experiments using Trizol reagent (Invitrogen). Total RNA was treated with DNase (Qiagen, Valencia, Calif., USA) to get rid of genomic DNA contaminations. Total RNA was the quantified using Nanodrop and its purity verified by Bioanalyzer 2100 (Agilent Technologies, Santa Clara, Calif., USA). Gene-specific primers were constructed using the GeneTools (Biotools Inc.) software. 3 genes Atp5, Hprt1 and GAPDH were used as internal control genes. The primers used for the analysis of genes are given in S-Table 2 (Swamp et al. J Exp Med 2011, 208, 2429-2447).
as §3

As for “TDP-43 siRNA: double-stranded siRNA against murine TDP-43 mRNA: 5′-AGGAAUCAGCGUGCAUAUAUU-3′ (SEQ ID NO:17), 5′-UAUAUGCACGCUGAUUCCUUU-3′ (SEQ ID NO:18) (listed as RNA, chemistry not given here)”, the “endogenous mouse TDP-43 levels (western blot)” value in series [1] was “reduced the endogenous mouse TDP-43 levels significantly”. Also, the “decrease in NF-κB activation (4κB^wt-luc reporter)” value (from here on “decrease in NF-κB activation”) in series [2] (5 ng pCMV-p65, vs scrambled siRNA) is recorded as “about 3 fold”. Moreover, the “decrease in NF-κB activation” value in series [2] (10 ng pCMV-p65, vs scrambled siRNA) is on record as “about 2.5 fold”. The “decrease in NF-κB activation” value in series [2] (20 ng pCMV-p65, vs scrambled siRNA) was “about 2.5 fold”. Moreover, in series [2] (50 ng pCMV-p65, vs scrambled siRNA), the “decrease in NF-κB activation” value was found to be 2 fold. In series [3] (0.5 ng/ml TNF-α), the “decrease in ICAM-1 luciferase activity” value was determined as 2 fold. Further, in series [3] (1.0 ng/ml TNF-α), the “decrease in ICAM-1 luciferase activity” value amounted to 2.5 fold. Moreover, in series [3] (1.5 ng/ml TNF-α), the “decrease in ICAM-1 luciferase activity” value came to 2 fold. Further, in series [4], the “reduced levels of Cox-2 mRNA” value came out at 2 fold, the “reduced levels of IL-1β mRNA” value was determined as 2 fold, the “reduced levels of IL-6 mRNA” value was 2.5 fold and the “reduced levels of IP-10 mRNA” value came to 2 fold. For the same substance, in series [4], the “reduced levels of TLR2 mRNA” value was determined as 1.5 fold, the “reduced levels of TNF-α mRNA” value came to 3 fold and the “reduced levels of p65 (RELA) mRNA” value is listed as 3 fold.
